# From PMC3509056 (The FASEB Journal, 2012)
# Where a chain is given by its changes, count along the chain named.
# Biological target: T1, hFFA2 (Homo sapiens, UniProt O15552, C141G/H242Q)
# T1 sequence (O15552 1-330 C141G/H242Q): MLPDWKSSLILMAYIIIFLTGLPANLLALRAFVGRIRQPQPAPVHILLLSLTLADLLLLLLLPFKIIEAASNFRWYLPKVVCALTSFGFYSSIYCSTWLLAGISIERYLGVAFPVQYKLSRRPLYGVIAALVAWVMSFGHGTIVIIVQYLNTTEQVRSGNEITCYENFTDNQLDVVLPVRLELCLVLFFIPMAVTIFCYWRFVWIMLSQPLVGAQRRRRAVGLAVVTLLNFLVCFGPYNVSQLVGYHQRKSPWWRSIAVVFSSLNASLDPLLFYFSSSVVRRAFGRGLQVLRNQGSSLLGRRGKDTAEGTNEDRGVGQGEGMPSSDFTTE
# Assay: […]GTPγS incorporation, membranes
# Type: biochemical
row,Structure (SMILES),EC50
1,"C/C=C/C=C/C(=O)O [compound 25, 2,4-hexadienoic acid]",3.47 µM

# Biological target: T2, hFFA2 (Homo sapiens, UniProt O15552, C141G)
# T2 sequence (O15552 1-330 C141G): T1 sequence (O15552 1-330 C141G/H242Q) with Q242H
# Assay: beta-arrestin-2 BRET recruitment
# Type: cell-based
row,Structure (SMILES),EC50
1,"CC(=CC(=O)O)C(F)(F)F [compound 26, 4,4,4-trifluoro-3-methyl-2-butenoic acid]",257 µM
2,"C=CC=CC(=O)O [compound 24, 2,4-pentadienoic acid]",22.9 µM
3,"CCC/C=C/C(=O)O [compound 23, trans-2-hexenoic acid]",3.24 µM
4,"CCCCCCC(=O)O [C7, heptanoic acid]",105 µM
5,"CC/C=C/C(=O)O [compound 22, trans-2-pentenoic acid]",33.1 µM
6,"O=C(O)C1=CCCCC1 [compound 29, 1-cyclohexene-1-carboxylic acid]",158 µM
7,"CCCCCCCC(=O)O [C8, caprylic acid]",1070 µM
8,"C/C=C/C=C/C(=O)O [compound 25, 2,4-hexadienoic acid]",4.57 µM
9,"O=C(O)/C=C/c1ccccc1 [compound 28, trans-cinnamic acid]",389 µM
10,"CCCCCC(=O)O [C6, caproic acid]",24 µM
11,"O=C(O)C1=CCCC1 [compound 27, 1-cyclopentenecarboxylic acid]",83.2 µM

# Biological target: T3, hFFA2 (Homo sapiens, UniProt O15552)
# T3 sequence (O15552 1-330): T1 sequence (O15552 1-330 C141G/H242Q) with G141C, Q242H
# Assay: beta-arrestin-2 BRET recruitment
# Type: cell-based
row,Structure (SMILES),EC50
1,"CCCCCCCCC(=O)O [C9, pelargonic acid]",> 10000 µM
2,"CC(=CC(=O)O)C(F)(F)F [compound 26, 4,4,4-trifluoro-3-methyl-2-butenoic acid]",> 10000 µM
3,"CCC/C=C/C(=O)O [compound 23, trans-2-hexenoic acid]",> 10000 µM
4,"CCCCCCC(=O)O [C7, heptanoic acid]",> 10000 µM
5,"O=C(O)C1=CCCCC1 [compound 29, 1-cyclohexene-1-carboxylic acid]",> 10000 µM
6,"O=CO [C1, formic acid]",2510 µM
7,"CCCCCCCC(=O)O [C8, caprylic acid]",> 10000 µM
8,"CC(=O)O [C2, acetic acid]",1000 µM
9,"CCCCC(=O)O [C5, valeric acid]",7080 µM
10,"C/C=C/C=C/C(=O)O [compound 25, 2,4-hexadienoic acid]",> 10000 µM
11,"CCCC(=O)O [C4, butyric acid]",1480 µM
12,"O=C(O)/C=C/c1ccccc1 [compound 28, trans-cinnamic acid]",> 10000 µM
13,"CCCCCC(=O)O [C6, caproic acid]",> 10000 µM
14,"O=C(O)C1=CCCC1 [compound 27, 1-cyclopentenecarboxylic acid]",> 10000 µM

# Biological target: T4, bFFA3 (Bos taurus, UniProt A0ACM8QIV1)
# T4 sequence (A0ACM8QIV1 1-326): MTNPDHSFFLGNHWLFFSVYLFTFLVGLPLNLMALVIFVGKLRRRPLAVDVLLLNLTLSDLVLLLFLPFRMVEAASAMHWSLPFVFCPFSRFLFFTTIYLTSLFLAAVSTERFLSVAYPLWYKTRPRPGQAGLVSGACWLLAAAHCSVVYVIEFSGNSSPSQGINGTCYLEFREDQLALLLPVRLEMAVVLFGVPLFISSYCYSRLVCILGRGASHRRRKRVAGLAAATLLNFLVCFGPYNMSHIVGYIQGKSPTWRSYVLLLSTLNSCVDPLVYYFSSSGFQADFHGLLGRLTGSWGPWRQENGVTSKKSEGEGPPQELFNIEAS
# Assay: […]GTPγS incorporation, membranes
# Type: biochemical
row,Structure (SMILES),EC50
1,"CCCCCCCCC(=O)O [C9, pelargonic acid]",> 10000 µM
2,"CCCCCCC(=O)O [C7, heptanoic acid]",158 µM
3,"O=CO [C1, formic acid]",> 10000 µM
4,"CCCCCCCC(=O)O [C8, caprylic acid]",> 10000 µM
5,"CCC(=O)O [C3, propionic acid]",155 µM
6,"CC(=O)O [C2, acetic acid]",4370 µM
7,"CCCCC(=O)O [C5, valeric acid]",123 µM
8,"CCCC(=O)O [C4, butyric acid]",263 µM
9,"CCCCCC(=O)O [C6, caproic acid]",126 µM

# Biological target: T5, hFFA3 (Homo sapiens, UniProt O14843)
# T5 sequence (O14843 1-346): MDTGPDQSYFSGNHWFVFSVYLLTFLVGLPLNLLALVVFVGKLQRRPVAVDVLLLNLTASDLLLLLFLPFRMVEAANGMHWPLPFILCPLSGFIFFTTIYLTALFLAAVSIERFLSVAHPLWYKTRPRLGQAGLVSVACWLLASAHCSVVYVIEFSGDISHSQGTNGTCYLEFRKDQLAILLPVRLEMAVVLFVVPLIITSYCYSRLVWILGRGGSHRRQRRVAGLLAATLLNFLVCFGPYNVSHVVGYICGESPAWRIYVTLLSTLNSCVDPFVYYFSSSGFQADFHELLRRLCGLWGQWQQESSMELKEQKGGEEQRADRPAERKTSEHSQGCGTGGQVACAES
# Assay: […]GTPγS incorporation, membranes
# Type: biochemical
row,Structure (SMILES),EC50
1,"CCCCCCCCC(=O)O [C9, pelargonic acid]",> 10000 µM
2,"CCCCCCC(=O)O [C7, heptanoic acid]",69.2 µM
3,"O=CO [C1, formic acid]",> 10000 µM
4,"CCCCCCCC(=O)O [C8, caprylic acid]",> 10000 µM
5,"CCC(=O)O [C3, propionic acid]",200 µM
6,"CC(=O)O [C2, acetic acid]",7590 µM
7,"CCCCC(=O)O [C5, valeric acid]",36.3 µM
8,"CCCC(=O)O [C4, butyric acid]",251 µM
9,"CCCCCC(=O)O [C6, caproic acid]",204 µM

# Biological target: T6, bFFA2 (Bos taurus, UniProt A0ACM8QIU6)
# T6 sequence (A0ACM8QIU6 1-329): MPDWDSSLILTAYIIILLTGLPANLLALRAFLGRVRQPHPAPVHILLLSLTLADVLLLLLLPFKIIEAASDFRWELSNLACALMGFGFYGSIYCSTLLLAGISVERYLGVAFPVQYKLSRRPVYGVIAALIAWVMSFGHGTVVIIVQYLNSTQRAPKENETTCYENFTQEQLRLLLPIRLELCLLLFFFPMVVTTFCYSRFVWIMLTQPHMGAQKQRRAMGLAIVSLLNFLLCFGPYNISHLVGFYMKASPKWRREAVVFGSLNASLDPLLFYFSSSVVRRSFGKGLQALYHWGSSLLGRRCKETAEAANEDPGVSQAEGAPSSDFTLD
# Assay: beta-arrestin-2 BRET recruitment
# Type: cell-based
row,Structure (SMILES),EC50
1,"CCCCCCCCC(=O)O [C9, pelargonic acid]",3390 µM
2,"CC(=CC(=O)O)C(F)(F)F [compound 26, 4,4,4-trifluoro-3-methyl-2-butenoic acid]",12.9 µM
3,"C=CC=CC(=O)O [compound 24, 2,4-pentadienoic acid]",10 µM
4,"CCC/C=C/C(=O)O [compound 23, trans-2-hexenoic acid]",3.98 µM
5,"CCCCCCC(=O)O [C7, heptanoic acid]",155 µM
6,"CC/C=C/C(=O)O [compound 22, trans-2-pentenoic acid]",5.25 µM
7,"O=C(O)C1=CCCCC1 [compound 29, 1-cyclohexene-1-carboxylic acid]",60.3 µM
8,"O=CO [C1, formic acid]",> 10000 µM
9,"CCCCCCCC(=O)O [C8, caprylic acid]",617 µM
10,"CCC(=O)O [C3, propionic acid]",347 ± 7.01 µM
11,"CC(=O)O [C2, acetic acid]",2040 µM
12,"CCCCC(=O)O [C5, valeric acid]",42.7 µM
13,"C/C=C/C=C/C(=O)O [compound 25, 2,4-hexadienoic acid]",4.27 µM
14,"CCCC(=O)O [C4, butyric acid]",69.2 µM
15,"O=C(O)/C=C/c1ccccc1 [compound 28, trans-cinnamic acid]",174 µM
16,"CCCCCC(=O)O [C6, caproic acid]",20.9 µM
17,"O=C(O)C1=CCCC1 [compound 27, 1-cyclopentenecarboxylic acid]",11 µM
